Source: patent publication US20220073536A1 (Rigel Pharmaceuticals, Inc., priority 2003, published 2022)
Blank lines part the entries; values can stand above or below the compound they belong to.

Experiments:
[1] = test system: cultured human mast cells (CHMC); assay: CHMC low cell density IgE activation: tryptase assay; type: cell-based; settings: IgE activation
Summary of the method: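 CHMC were seeded at 1000–1500 cells/well in MT buffer and incubated 1 hr at 37 °C. They were then stimulated with anti-IgE for 30 min at 37 °C, with unstimulated wells as controls. Released tryptase in the supernatant was measured with a fluorogenic substrate after 30 min at room temperature.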

[2] = test system: cultured human mast cells (CHMC); assay: CHMC low cell density ionomycin activation: tryptase assay; type: cell-based; settings: read-out: LD Tryptase, CHMC, Iono, 3 pt
[3] = Homo sapiens, Mast cell, low cell density, 3 pt, read-out: LD Tryptase, CHMC, IgE, 3 pt
[4] = Homo sapiens, Mast cell, low cell density, 8 pt, read-out: LD Tryptase, CHMC, IgE, 8 pt
[5] = Homo sapiens, Mast cell, low cell density, 3 pt
[6] = low cell density CHMC, tryptase release, 3 pt, read-out: LD Tryptase, CHMC, IgE, 3 pt
[7] = low cell density CHMC, tryptase release, 8 pt, read-out: LD Tryptase, CHMC, IgE, 8 pt
[8] = low cell density CHMC, tryptase release, 3 pt
[9] = Homo sapiens, Mast cell, low cell density CHMC, tryptase release, 3 point, read-out: LD Tryptase, CHMC, IgE, 3 pt
[10] = Homo sapiens, Mast cell, low cell density CHMC, tryptase release, 3 point
[11] = Homo sapiens, Mast cell, low cell density CHMC, tryptase, 3 pt, read-out: LD Tryptase, CHMC, IgE, 3 pt
[12] = Homo sapiens, Mast cell, low cell density CHMC, tryptase, 3 pt
[13] = Homo sapiens, Mast cell, low cell density CHMC, tryptase release, 8 point, read-out: LD Tryptase, CHMC, IgE, 8 pt
[14] = low cell density CHMC, tryptase, 3 pt, read-out: LD Tryptase, CHMC, IgE, 3 pt
[15] = low cell density CHMC, tryptase, 3 pt
[16] = low cell density CHMC, tryptase, 8 pt, read-out: LD Tryptase, CHMC, IgE, 8 pt
[17] = low cell density CHMC, tryptase release, 3 point, read-out: LD Tryptase, CHMC, IgE, 3 pt
[18] = low cell density CHMC, tryptase release, 3 point

IC50 [1, 3]: < 10 µM
IC50 [1, 4]: < 10 µM
IC50 [2, 5]: < 10 µM
Compound: Cc1cc(Nc2ncc(F)c(Nc3ccc4c(c3)OCCO4)n2)cc(Cl)c1O [Compound 995, N2-(3-Chloro-4-hydroxy-5-methylphenyl)-N4-(3,4-ethylenedioxyphenyl)-5-fluoro-2,4-pyrimidinediamine]

IC50 [1, 6]: < 10 µM
IC50 [1, 7]: < 10 µM
IC50 [2, 8]: > 10 µM
Compound: CC1(C)COc2ccc(Nc3nc(Nc4ccc(-c5ncco5)cc4)ncc3F)cc2N1 [Compound 238, N4-(3,4-Dihydro-3,3-dimethyl-2H,4H-benz[1,4]oxazin-6-yl)-5-fluoro-N2-[4-(oxazol-2-yl)phenyl]-2,4-pyrimidinediamine]

IC50 [1, 3]: < 10 µM
IC50 [1, 4]: < 10 µM
IC50 [2, 5]: > 10 µM
Compound: Cc1ccc(Nc2nc(Nc3cc(C)cc(C)c3)ncc2F)nc1 [Compound 509]

IC50 [1, 9]: < 10 µM
IC50 [2, 10]: < 10 µM
Compound: COC(=O)c1cc2cc(Nc3ncc(F)c(N(C)c4ccc(OC(C)C)nc4)n3)ccc2o1 [Compound 586, 5-Fluoro-N4-(2-isopropoxypyrid-5-yl)-N2-(2-methoxycarbonylbenzofuran-5-yl)-N4-methyl-2,4-pyrimidinediamine]

IC50 [1, 9]: > 10 µM
IC50 [2, 10]: > 10 µM
Compound: Cc1cc(C)cc(Nc2ncc(F)c(N(C)c3cc(C)c(Cl)c(C)c3)n2)c1 [Compound 592]

IC50 ([1]; low cell density CHMC, tryptase readout, 3 pt, read-out: LD Tryptase, CHMC, IgE, 3 pt): < 10 µM
IC50 ([1]; low cell density CHMC, tryptase readout, 8 pt, read-out: LD Tryptase, CHMC, IgE, 8 pt): < 10 µM
IC50 ([2]; low cell density CHMC, tryptase readout, 3 pt): < 10 µM
Compound: CNC(=O)COc1c(C)cc(Nc2ncc(F)c(Nc3ccc4c(n3)NC(=O)C(C)(C)O4)n2)cc1C [Compound 1041, N2-[3,5-Dimethyl-4-(N-methylamino)carbonylmethyleneoxyphenyl]-N4-(2,2-dimethyl-3-oxo-4H-5-pyrid[1,4]oxazin-6-yl)-5-fluoro-2,4-pyrimidinediamine]

IC50 [1, 6]: < 10 µM
IC50 [1, 7]: < 10 µM
IC50 [2, 8]: > 10 µM
Compound: CNC(=O)COc1cccc(Nc2ncc(F)c(Nc3ccc4c(c3)NCCS4)n2)c1 [Compound 258, N4-(3,4-Dihydro-2H,4H-benzo[1,4]thiazin-6-yl)-5-fluoro-N2-[3-(N-methylamino)carbonylmethyleneoxyphenyl]-2,4-pyrimidinediamine]

IC50 ([1]; Homo sapiens, Mast cell, low cell density CHMC, tryptase readout, 3 pt, read-out: LD Tryptase, CHMC, IgE, 3 pt): < 10 µM
IC50 ([1]; Homo sapiens, Mast cell, low cell density CHMC, tryptase readout, 8 pt, read-out: LD Tryptase, CHMC, IgE, 8 pt): < 10 µM
IC50 ([2]; Homo sapiens, Mast cell, low cell density CHMC, tryptase readout, 3 pt): > 10 µM
Compound: CC1(C)Oc2ccc(Nc3nc(Nc4cccc(-c5cnco5)c4)ncc3F)cc2NC1=O [Compound 1016, N4-(2,2-Dimethyl-3-oxo-4H-benz[1,4]oxazin-6-yl)-5-fluoro-N2-[3-(oxazol-5-yl)phenyl]-2,4-pyrimidinediamine]

IC50 [1, 14]: < 10 µM
IC50 [1, 16]: < 10 µM
IC50 [2, 15]: > 10 µM
Compound: CNC(=O)CNC(=O)c1ccc(Nc2ncc(F)c(Nc3ccc(Cl)c(Cl)c3)n2)cc1 [Compound 1300, N4-(3,4-Dichlorophenyl)-5-fluoro-N2-[4-[N-(N-methylamino)carbonylmethylene]aminocarbonylphenyl]-2,4-pyrimidinediamine]

IC50 [1, 9]: < 10 µM
IC50 [1, 13]: < 10 µM
IC50 [2, 10]: > 10 µM
Compound: CNC(=O)c1ccc(Nc2ncc(F)c(Nc3ccc(Cl)c(OC)c3)n2)cc1Cl [Compound 611, N4-(4-Chloro-3-methoxyphenyl)-N2-[3-chloro-4-(N-methylamino)carbonylphenyl]-5-fluoro-2,4-pyrimidinediamine]

IC50 [1, 14]: < 10 µM
IC50 [1, 16]: < 10 µM
IC50 [2, 15]: > 10 µM
Compound: CN1CCN(c2cccc(Nc3ncc(F)c(Nc4ccc5c(n4)NCCO5)n3)c2)CC1 [Compound 1142, N4-(3,4-Dihydro-2H,4H-5-pyrid[1,4]oxazin-6-yl)-5-fluoro-N2-[3-(4-methylpiperazino)phenyl]-2,4-pyrimidinediamine]

IC50 [1, 14]: < 10 µM
IC50 [1, 16]: < 10 µM
IC50 [2, 15]: > 10 µM
Compound: CNC(=O)CNC(=O)c1ccc(Nc2ncc(F)c(Nc3ccc4c(c3)NC(=O)[C@H](C)O4)n2)cc1 [Compound 1296, (S)-5-Fluoro-N2-[4-[N-(N-methylamino)carbonylmethylene]aminocarbonylphenyl]-N4-(2-methyl-3-oxo-2H,4H-benz[1,4]oxazin-6-yl)-2,4-pyrimidinediamine]

IC50 [1, 17]: < 10 µM
IC50 [2, 18]: > 10 µM
Compound: CNC(=O)Cn1ccc2ccc(Nc3ncc(F)c(Nc4ccc(C(=O)NC)c(Cl)c4)n3)cc21 [Compound 665, N4-[3-Chloro-4-(N-methylamino)carbonylphenyl]-5-fluoro-N2-[1-(N-methylamino)carbonylmethyleneindol-6-yl]-2,4-pyrimidinediamine]

IC50 [1, 17]: < 10 µM
IC50 ([1]; low cell density CHMC, tryptase release, 8 point, read-out: LD Tryptase, CHMC, IgE, 8 pt): < 10 µM
IC50 [2, 18]: > 10 µM
Compound: CNC(=O)Cn1ccc2ccc(Nc3ncc(F)c(Nc4ccc(OC)c(Cl)c4)n3)cc21 [Compound 664, N4-(3-Chloro-4-methoxyphenyl)-5-fluoro-N2-[1-(N-methylamino)carbonylmethyleneindol-6-yl]-2,4-pyrimidinediamine]

Second part, the compound before the results:

Compound: COc1cc(N(C)c2nc(Nc3cc(C)cc(C)c3)ncc2F)ccc1Cl [Compound 588]
IC50 [1, 9]: < 10 µM
IC50 [2, 10]: > 10 µM

Compound: COc1ccc(Nc2nc(Nc3cccc(N4CCN(C(C)=O)CC4)c3)ncc2F)cc1OC [Compound 429, N2-[3-(4-Acetylpiperazino)phenyl]-N4-(3,4-dimethoxyphenyl)-5-fluoro-2,4-pyrimidinediamine]
IC50 [1, 11]: < 10 µM
IC50 [2, 12]: > 10 µM

Compound: COc1cc(Nc2ncc(F)c(N(C)c3ccc(Cl)c(OC)c3)n2)cc(OC)c1 [Compound 587, N4-(4-Chloro-3-methoxyphenyl)-N2-(3,5-dimethoxyphenyl)-5-fluoro-N4-methyl-2,4-pyrimidinediamine]
IC50 [1, 9]: < 10 µM
IC50 [1, 13]: < 10 µM
IC50 [2, 10]: > 10 µM

Compound: Fc1cnc(Cl)nc1Nc1ccc2c(n1)NCCO2 [Compound 1117, 2-Chloro-5-fluoro-N4-(3,4-dihydro-2H,4H-5-pyrid[1,4]oxazin-6-yl)-4-pyrimidineamine]
IC50 [1, 14]: > 10 µM
IC50 [2, 15]: > 10 µM

Compound: COCCn1ncc2ccc(Nc3ncc(F)c(Nc4ccc(F)c(OC)c4)n3)cc21 [Compound 778, 5-Fluoro-N4-(4-fluoro-3-methoxyphenyl)-N2-[1-(2-methoxyethyl)indazol-6-yl]-2,4-pyrimidinediamine]
IC50 ([1]; Homo sapiens, Mast cell, low cell density CHMC, tryptase release, 3 pt, read-out: LD Tryptase, CHMC, IgE, 3 pt): < 10 µM
IC50 ([2]; Homo sapiens, Mast cell, low cell density CHMC, tryptase release, 3 pt): > 10 µM

Compound: CC(C)(C)OC(=O)NC1CCOc2ccc(Nc3nc(Nc4ccc(-c5ncco5)cc4)ncc3F)cc21 (centres unmarked) [Compound 1289, N4-(4-N-tert-Butoxycarbonylamino-3,4-dihydro-2H-1-benzopyran-6-yl)-5-fluoro-N2-[4-(oxazol-2-yl)phenyl]-2,4-pyrimidinediamine]
IC50 [1, 14]: < 10 µM
IC50 [2, 15]: < 10 µM

Compound: CN(c1ccc2c(c1)OCCO2)c1nc(Nc2ccc(-c3ncco3)cc2)ncc1F [Compound 416]
IC50 [1, 11]: < 10 µM
IC50 [2, 12]: > 10 µM

Compound: Fc1cnc(Nc2cc(-c3ncco3)cc(C(F)(F)F)c2)nc1Nc1ccc2c(c1)OCCO2 [Compound 519, N4-(3,4-Ethylenedioxyphenyl)-5-fluoro-N2-[3-(oxazol-2-yl)-5-trifluoromethylphenyl]-2,4-pyrimidinediamine]
IC50 [1, 3]: < 10 µM
IC50 [2, 5]: > 10 µM

Compound: COc1cc(N(C)c2nc(Nc3ccc4[nH]ccc4c3)ncc2F)ccc1Cl [Compound 590, N4-(4-Chloro-3-methoxyphenyl)-5-fluoro-N2-(indol-5-yl)-N4-methyl-2,4-pyrimidinediamine]
IC50 [1, 9]: < 10 µM
IC50 [1, 13]: < 10 µM
IC50 [2, 10]: > 10 µM

Compound: CC(=O)N1CCN(c2cccc(Nc3ncc(F)c(NC4CCCCC4)n3)c2)CC1 [Compound 1167, N2-[3-(4-Acetylpiperazino)phenyl]-N4-cyclohexyl-5-fluoro-2,4-pyrimidinediamine]
IC50 [1, 11]: < 10 µM
IC50 [2, 12]: > 10 µM

Compound: CCOC(=O)N1CCN(c2ccc(Nc3ncc(F)c(N[C@H]4CCN(Cc5ccccc5)C4)n3)cc2)CC1 [Compound 1183, (S)-N4-(1-Benzylpyrrolidin-3-yl)-N2-[4-(4-ethoxycarbonylpiperazino)phenyl]-5-fluoro-2,4-pyrimidinediamine]
IC50 [1, 11]: < 10 µM
IC50 [2, 12]: > 10 µM

Compound: COC(=O)CN(c1ccc2c(c1)OCCO2)c1nc(Nc2cc(OC)cc(OC)c2)ncc1F [Compound 442]
IC50 [1, 11]: < 10 µM
IC50 [2, 12]: > 10 µM
